“Also recorded” adds a separate entry of the source.
Tests used:
SP6 RNA polymerase = biological target: T1, SP6 RNA polymerase (Enterobacteria phage SP6, UniProt P06221); assay: In vitro transcription reaction (MAXIscript kit), UTP[α-32P] incorporation; assay type: biochemical; settings: 20 mM reducing reagent
T1 construct: purchased Ambion, Inc
T1 sequence (P06221 1-874): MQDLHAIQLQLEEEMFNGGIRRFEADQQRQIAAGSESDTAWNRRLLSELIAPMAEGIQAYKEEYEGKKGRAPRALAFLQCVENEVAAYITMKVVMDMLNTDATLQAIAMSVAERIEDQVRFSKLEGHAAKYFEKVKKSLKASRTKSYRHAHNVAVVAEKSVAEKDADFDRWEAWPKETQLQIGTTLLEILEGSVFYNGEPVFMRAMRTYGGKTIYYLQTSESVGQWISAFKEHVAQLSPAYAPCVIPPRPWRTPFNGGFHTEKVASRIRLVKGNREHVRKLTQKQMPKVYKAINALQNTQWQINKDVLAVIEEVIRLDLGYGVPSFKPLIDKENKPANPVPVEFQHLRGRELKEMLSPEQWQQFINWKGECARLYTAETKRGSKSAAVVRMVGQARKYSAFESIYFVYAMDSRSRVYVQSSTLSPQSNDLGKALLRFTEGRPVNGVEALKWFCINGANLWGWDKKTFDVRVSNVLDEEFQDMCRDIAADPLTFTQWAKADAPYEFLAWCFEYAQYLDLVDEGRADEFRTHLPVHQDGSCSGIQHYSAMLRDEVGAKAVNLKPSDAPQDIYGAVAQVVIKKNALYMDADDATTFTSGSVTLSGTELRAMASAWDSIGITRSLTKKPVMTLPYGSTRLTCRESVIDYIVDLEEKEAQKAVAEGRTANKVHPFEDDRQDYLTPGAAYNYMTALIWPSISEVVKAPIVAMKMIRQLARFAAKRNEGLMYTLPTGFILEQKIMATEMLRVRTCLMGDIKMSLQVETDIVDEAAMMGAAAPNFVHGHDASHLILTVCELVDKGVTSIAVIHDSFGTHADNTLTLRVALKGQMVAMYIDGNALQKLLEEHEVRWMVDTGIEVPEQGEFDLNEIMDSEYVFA
Protocol: (§1) FIG. 3. […] Transcriptions were performed with T7, T3 and SP6 RNA polymerase in the presence and absence of 20 mM DTT. For each RNA polymerase reaction, pTRI-Xef DNA was the template and UTP[α^32P] was included to measure the efficiency of transcription. Duplicates were performed for each reaction. TCA precipitations were performed on each transcription reaction to measure the percent of the UTP[α^32P] incorporated into RNA.
(§2) The transcription reactions were based on the MAXIscript™ transcription kit (Ambion, Inc.). The following were assembled with or without 20 mM reducing reagent in a final volume of 18 μl: NTPs (0.5 mM each), 1 μg linearized DNA template, 2 μl 10 × transcription buffer, and 0.2 μl UTP [α-^32P] (800 Ci/mmol). The reaction mixtures were incubated 60° C. for 10 minutes and then 2 μl of the either SP6, T7 or T3 RNA polymerase (10 units/μl) were added to the reactions, incubated 30° C. for 60 minutes and then TCA precipitated to assess the incorporation of the radioactive label.

T7 RNA polymerase = biological target: T2, T7 RNA polymerase (Escherichia phage T7, UniProt P00573); assay: as above; assay type: biochemical; settings: 20 mM reducing reagent
T2 construct: purchased Ambion, Inc
Protocol: as §1, §2

T2 sequence (P00573 whole entry): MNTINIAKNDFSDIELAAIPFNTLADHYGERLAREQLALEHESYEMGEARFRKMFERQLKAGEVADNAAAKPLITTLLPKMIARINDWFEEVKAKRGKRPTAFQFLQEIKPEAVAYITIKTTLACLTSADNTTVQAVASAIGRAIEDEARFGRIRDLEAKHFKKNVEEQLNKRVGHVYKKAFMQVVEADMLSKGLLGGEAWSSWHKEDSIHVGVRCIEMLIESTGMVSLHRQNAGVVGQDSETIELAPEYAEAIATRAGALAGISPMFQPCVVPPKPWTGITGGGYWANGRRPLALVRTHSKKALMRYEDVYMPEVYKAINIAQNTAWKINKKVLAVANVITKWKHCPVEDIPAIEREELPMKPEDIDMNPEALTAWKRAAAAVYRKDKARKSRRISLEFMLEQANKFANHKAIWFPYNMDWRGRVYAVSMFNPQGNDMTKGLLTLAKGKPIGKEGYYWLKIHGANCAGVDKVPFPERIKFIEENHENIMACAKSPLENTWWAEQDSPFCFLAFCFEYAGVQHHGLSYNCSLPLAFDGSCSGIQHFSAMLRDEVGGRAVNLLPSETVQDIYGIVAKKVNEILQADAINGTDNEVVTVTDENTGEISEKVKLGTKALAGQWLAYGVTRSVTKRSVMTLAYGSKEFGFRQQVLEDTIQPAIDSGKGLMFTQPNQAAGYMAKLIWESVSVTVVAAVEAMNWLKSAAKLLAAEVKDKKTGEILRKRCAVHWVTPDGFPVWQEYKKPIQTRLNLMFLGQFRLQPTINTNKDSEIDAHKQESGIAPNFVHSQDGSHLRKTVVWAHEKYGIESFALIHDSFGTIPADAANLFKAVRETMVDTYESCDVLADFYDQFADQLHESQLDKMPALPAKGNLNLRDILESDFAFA

Structure (SMILES): O[C@H](CS)[C@H](O)CS [DTT, dithiothreitol]
- inhibition of SP6 RNA polymerase transcription (SP6 RNA polymerase): does not inhibit; also recorded: None of the three polymerases were inhibited
- inhibition of T7 RNA polymerase transcription (T7 RNA polymerase): does not inhibit; also recorded: None of the three polymerases were inhibited

Reference: patent US6825340B2, “Methods and reagents for inactivating ribonucleases” (Ambion, Inc., priority 1998, dated 2004)
